Results reported in paper PMC10385824, “Antiproliferative and Tubulin-Destabilising Effects of 3-(Prop-1-en-2-yl)azetidin-2-Ones and Related Compounds in MCF-7 and MDA-MB-231 Breast Cancer Cells” (Pharmaceuticals, 2023).
Where two headings read alike, the source gives them in different places.

How the values were obtained:
MCF-7 cells [1] = assay: Lactate dehydrogenase (LDH) cytotoxicity assay; format: cell-based, human; conditions: 10 μM, 72 h, LDH release
Experimental: The cytotoxic effects of the compounds were determined using the CytoTox 96 non-radioactive cytotoxicity assay (Promega) as previously reported. The MCF-7 cells were seeded in 96-well plates and incubated for 24 h. Cells were treated with test compounds 16, 26 and 30 at 10 μM concentration as described in the cell viability assay above. At 72 hr, 20 μL of ‘lysis solution (10X)’ was added to the control wells to ensure 100% death. The cells were incubated for a further 1 hr. Supernatant (50 μL) was removed from each well and transferred to a 96-well plate. Cytotox 96R Reagent (50 μL) was added to each well, and the plate was retained in darkness at 20 °C for 30 min. 50 μL of ‘stop solution’ was then added to each well, and the absorbance was determined at 490 nm using a Dynatech MR5000 plate reader. The cell death (%) at 10 μM was determined.

[2] = system: NCI 60 human cancer cell line panel; assay: NCI 60 cell line screen (SRB), panel values; conditions: Homo sapiens, 60 cell
[3] = HPLC stability study in plasma; format: in vitro ADME, human; conditions: human, buffered plasma (plasma:buffer 1:9); Plasma; study over 7 h
Experimental: Analytical high-performance liquid chromatography (HPLC) stability studies were performed as follows using Symmetry® column (C18, 5 µm, 4.6 × 150 mm), Waters 2487 Dual Wavelength Absorbance detector, Waters 1525 binary HPLC pump and Waters 717 plus Autosampler (Waters Corporation, Milford, MA, USA) with detection at 254 nm as previously described. Samples were analysed using mobile phase acetonitrile (80%): water (20%), flow rate (1 mL/min) over 10 min. […] First, 30 µL of compound stock solution was diluted with appropriate buffer (1 mL); sample was shaken and injected immediately. Samples were withdrawn and analysed at the following time points: t = 0 min, 5 min, 30 min, 60 min, 90 min, 120 min, 24 h and 48 h. (ii) Thermal stability: Compound stock solution (1 mL) was placed in a glass vial on a heating block for 4 h at 60 °C. The sample was then cooled, diluted (acetonitrile) and analysed. (ii) Oxidising conditions: H2O2 (3%, 0.2 mL) was added to compound stock solution (0.8 mL). The vial was vortexed and retained at 20 °C, and the sample was analysed at 60, 120 180 and 240 min. (iv) Acidic conditions: HCl (0.1 M, 0.2 mL) was added to stock solutions (0.8 mL). The vial was mixed by vortex and retained at 20 °C. A sample was neutralised with NaOH (0.1 M, 0.2 mL) at 60, 120, 180 and 240 min, followed by HPLC analysis. (v) Alkaline conditions: NaOH (0.1 M, 0.2 mL) was added to stock solution (0.8 mL) of the compound in a vial. The vial was mixed by vortex and retained at 20 °C. A sample was neutralised with HCl (0.1 M, 0.2 mL) at 60, 120, 180 and 240 min followed by HPLC analysis. (vi) Photostability study: Compounds (stock solution, 1 mL) were placed in a vial, exposed to UV light for 4 h and then analysed by HPLC as above. Stability studies in plasma: Approval for this study was obtained from the School of Pharmacy and Pharmaceutical Sciences Trinity College Dublin Research Ethics Committee (2020–06-01-MS). Following informed consent, blood was withdrawn from healthy volunteers, and plasma was obtained by centrifugation and kept at −20 °C until further use. […] A sample (250 µL) was then added to the Eppendorf tube containing ZnSO4.7H2O solution (500 µL) (2% w/v ZnSO4 solution in acetonitrile:water, 1:1). The samples were centrifuged (10,000 rpm, 3 min), filtered (0.2 micron filter) and analysed by HPLC as above. Further samples were taken at one-hour intervals.

MCF-7 cells [4] = assay: Annexin-V/PI apoptosis assay
Experimental: Flow cytometry using annexin-V and propidium iodide (PI) was used to detect apoptotic cell death in MCF-7 cells. […] Cells were then incubated on ice in darkness for 30 min in annexin-V-containing binding buffer [1:100]. Cells were washed once in binding buffer and then re-suspended in propidium iodide containing binding buffer [1:1000]. Cells were analysed directly using the BD Accuri flow cytometer and Prism software. Four cell populations are produced in this assay: annexin-V- and PI-negative (Q4, healthy cells), annexin-V-positive and PI-negative (Q3, early apoptosis), annexin-V- and PI-positive (Q2, late apoptosis) and annexin-V-negative and PI-positive (Q1, necrosis). CA-4 (50 nM) was used as the positive control for apoptosis.
Cells were then collected and processed for analysis.

[5] = system: MCF-7 human breast cancer cells; assay: cells
Experimental: All biochemical assays were performed in triplicate for the determination of mean values reported. The human breast carcinoma cell line MCF-7 was purchased from the European Collection of Animal Cell Cultures (ECACC) and was cultured in Eagle’s minimum essential medium with 10% fetal bovine serum, 2 mM L-glutamine and 100 μg/mL penicillin/streptomycin. The medium was supplemented with 1% non-essential amino acids. […] All cells were sub-cultured 3 times/week by trypsinisation.
Cells were seeded at a density of 5 × 10^3 cells/well (MCF-7) in triplicate in 96-well plates. […] Cell proliferation for MCF-7 and MDA-MB-231 cells was analysed using the Alamar Blue assay (Invitrogen Corp.). […] Experiments were performed in triplicate on at least three separate occasions.

[6] = system: MDA-MB-231 human breast cancer cells; assay: Alamar Blue cell viability (antiproliferative) assay; format: cell-based; conditions: 72 h, eight concentrations 0.001-50 μM, mean ± SEM, read-out: Antiproliferative Activity IC50
[7] = system: colchicine-binding site of β-tubulin (Cys239, Cys354) in MCF-7 cells; assay: Colchicine-binding site assay (EBI crosslinking, Western blot); conditions: 10 μM, 2 h, then EBI
Experimental: MCF-7 cells were seeded at density of 5 × 10^4 cells/well in 6-well plates and incubated overnight. […] Samples were separated by SDS-PAGE, transferred to polyvinylidene difluoride membranes and examined with β-tubulin antibodies (Sigma-Aldrich, Milwaulkee, WI, USA) [99].
Cells were harvested, lysed and then analysed using sedimentation followed by Western blotting to identify β-tubulin and β-tubulin-EBI adduct.

[8] = system: microtubule network in MCF-7 cells; assay: Immunofluorescence confocal microscopy; format: cell-based, human; conditions: 16 h
Experimental: CA-4 and β-lactam 9q depolymerise the microtubule network in MCF-7 cells. […] After 16 h, the cells were fixed in 4% paraformaldehyde and stained with mouse monoclonal anti-α-tubulin−FITC antibody (clone DM1A) (green), Alexa Fluor 488 dye, and counterstained with DAPI (blue). The confocal images were obtained by Leica SP8 confocal microscopy with Leica application suite X software. Representative confocal micrograph images of three separate experiments are shown above [scale bar: […]].
The effects of β-lactam 9q on MCF-7 cytoskeleton were determined using confocal microscopy as previously described. MCF-7 cells were seeded at 1 × 10^5 cells/mL in glass slides with eight chambers (BD Biosciences, San Jose, CA, USA). […] Following treatment, cells were gently washed in PBS, fixed for 20 min with 4% paraformaldehyde in PBS and permeabilised in 0.5% Triton X-100. The cells were then washed with PBS-T (PBS containing 0.1% Tween), blocked in 5% bovine serum albumin diluted in PBS-T and incubated with mouse monoclonal anti-α-tubulin-FITC antibody (clone DM1A) (Sigma, Milwaulkee, WI, USA) (1:100) for 2 h at 20 °C. The cells were washed again with PBS-T and incubated with Alexa Fluor 488 dye (1:450) for 1 h at 20 °C. Following washes in PBST, the cells were mounted in Ultra Cruz Mounting Media (Santa Cruz Biotechnology, Santa Cruz, CA, USA), which contained 4,6-diamino-2-phenolindol dihydrochloride (DAPI). The immunofluorescence cell images were captured by Leica SP8 confocal microscopy and analysed with Leica application suite X software. Microscopy experiments were performed on three independent occasions, and the images for these experiments were obtained on the same day using identical conditions.

[9] = HPLC stability study in phosphate buffers; format: physicochemical; conditions: for remaining at 7 h, 14.6 µg/mL: phosphate buffer, study over 7 h
[10] = system: purified bovine brain tubulin; assay: Tubulin polymerization assay (light scattering, BK006 kit); format: biochemical
Experimental: Tubulin polymerization was monitored using the BK006 kit obtained from Cytoskeleton Inc. (Denver, CO, USA). The values reported represent the average values determined from two independent assays. Purified bovine brain tubulin (>99%, 3 mg/mL) in buffer containing PIPES (80 mM, pH 6.9), EGTA (0.5 mM), MgCl2 (2 mM), GTP (1 mM) and glycerol (10%) was incubated at 37 °C in vehicle (1% DMSO or EtOH (v/v) in dH2O) or with compounds 9h, 9q, 9s, 10h, 10p, 10r, 11h, 11p, 11r, 17f (all at 10 µM concentration); CA-4 (10 μM) was used as control. In this assay, light scattering is related to the concentration of polymerised microtubules produced. Tubulin assembly was monitored turbidimetrically at 340 nm at 37 °C in a Spectramax 340 PC spectrophotometer (Molecular Devices, Sunnyvale, CA, USA).

In the case of COc1ccc(/C=C\c2cc(OC)c(OC)c(OC)c2)cc1O [CA-4, Combretastatin A-4, reference compound], the cell death (MCF-7 cells [1]) is reported as 12%, the GI50 ([2]; read-out: Mean GI50, mean over all NCI 60 cell lines) is reported as 99.3 nM and the IC (TGI (total growth inhibition)) ([2]; read-out: Mean TGI) is reported as 10300 nM. The remaining at 7 h, 41.3 µg/mL [3] was 95%, the “cells undergoing apoptosis (early+late)” value (MCF-7 cells [4]; 50 nM, 72 h) was 34.6% and the viability at 0.05 µM (MCF-7 cells [4]; Homo sapiens, MCF7, 72 h, read-out: Viable) was 61.8%. It also gave an IC50 ([5]; MCF7, 72 h, MCF-7, Figure 2, 72 h) of 3 nM, an IC50 ([5]; MCF7, 72 h, read-out: Antiproliferative Activity IC50, MCF-7, 72 h, eight concentrations 1–50 μM, mean ± SEM, Table 2) of 3.9 nM and an IC50 ([5]; MCF7, 72 h, read-out: Antiproliferative Activity IC50, MCF-7, 72 h, eight concentrations (0.001–50 mM [sic]), mean ± SEM, Table 5) of 3.9 ± 0.32 nM. For the same compound, the IC50 ([5]; MCF7, MCF-7) was 3.9 nM, the IC50 ([5]; MCF7, read-out: Antiproliferative Activity IC50, MCF-7, eight concentrations 0.001–50 μM, mean ± SEM, Table 3) was 3.9 ± 0.32 nM and the IC50 ([5]; MCF7, read-out: Antiproliferative Activity IC50, MCF-7, eight concentrations 0.001–50 μM, mean ± SEM, Table 4) was 3.9 ± 0.32 nM. The IC50 [6] was 43 nM, the “formation of β-tubulin-EBI adduct” value [7] was “formation of the EBI adduct was prevented” and the “effect on microtubule network” value [8] was “microtubule formation was inhibited and resulted in depolymerised microtubules”. The time stable ([9]; pH 4.0, 7.4 and 9.0 and human plasma) was “more than 7 h”, the remaining at 7 h, 14.6 µg/mL ([9]; pH 4.0) was 97% and the remaining at 7 h, 14.6 µg/mL ([9]; pH 7.4) was 89%. For the same compound, the remaining at 7 h, 14.6 µg/mL ([9]; pH 9.0) was 90%, the “Fold Reduction in Vmax” value [10] was 6.3 and the Vmax ([10]; compound at 10 μM, 37 °C, 340 nm) was 0.0022 mOD/min.
